Experimental data published in article PMC3115046, “Analyzing Airway Inflammation with Chemical Biology: Dissection of Acidic Mammalian Chitinase Function with a Selective Drug-like Inhibitor” (Chemistry & Biology, 2011).
Where “and” joins values, the source holds several entries; their conditions need not be identical. Equal values may be shown once. Read-outs that look alike come from different tables or passages of the source.

Key:
[1] = target: human chitotriosidase (hCHIT1) (Homo sapiens, UniProt Q13231); assay: Chitinase activity assay with fluorescent 4-MU substrate, hCHIT1; type: biochemical; conditions: read-out: IC50 against hCHIT1
[2] = target: T1, recombinant mAMCase (Mus musculus, UniProt Q91XA9); assay: Recombinant mAMCase (COS-7 cell-free supernatant) chitinase activity assay; type: biochemical; conditions: 10 min at 37°C, read-out: IC50 against recombinant mAMCase
T1 construct: The full-length-coding region of mAMCase was amplified using a lung cDNA template; V5/His; made in house; cell-free, serum-free supernatant used as enzyme source
Procedure: Chitinase activity was determined using a fluorescent 4-methylumbelliferyl (4-MU) substrate. […] Chitinase activity is measured relative to the amount of substrate hydrolysed/hr/mL sample.
The full-length-coding region of mAMCase was amplified using a lung cDNA template. The cDNA fragment was directionally cloned into pcDNA3.1 (Invitrogen), to generate a V5/His tagged plasmid. TOP10 competent cells were transformed with the AMCase plasmid and sequence confirmed. Mammalian COS-7 cells were transfected with AMCase-pcDNA3.1 plasmid using Lipofectamine 2000 (Invitrogen). COS-7 cell supernatants were screened for AMCase protein by western blot and chitinase activity. A stable AMCase-expressing cell line was generated using G418 selection medium (RPMI).
Chitinase activity of hAMCase, lung homogenates, or AMCase COS-7 cell supernatants (serum-free) were determined using 4-methylumbelliferyl-β-D-N,N′,N″-triacetylchitotrioside and 4-methylumbelliferyl-β-D-N,N′,N″-triacetylchitobioside, as described. Samples were incubated with substrate (0.022 mM in 100 mM citric acid, 200 mM sodium phosphate buffer [pH 5.2]) in a final volume of 50 μL. […] Liberated 4-methlyumberlliferone was quantified using a microplate fluorometer (excitation 360 nm/emission 440 nm). Ki and IC50 values were determined in the presence of different concentrations of inhibitor. Experiments were performed in duplicate or triplicate.

[3] = tested on: lung chitinase activity; assay: Chitinase activity in lung homogenates, OVA allergic inflammation model; type: in vivo, BALB/c mice
Procedure: Samples were incubated with substrate (0.022 mM in 100 mM citric acid, 200 mM sodium phosphate buffer [pH 5.2]) in a final volume of 50 μL. After a 10 min incubation at 37°C, the reaction was stopped with the addition of 500 μl sodium carbonate buffer (0.5 M sodium carbonate and 0.5 M sodium bicarbonate [pH 10.6]). Liberated 4-[…] was quantified using a microplate fluorometer (excitation 360 nm/emission 440 nm). Ki and IC50 values were determined in the presence of different concentrations of inhibitor. Experiments were performed in duplicate or triplicate. All experiments used female BALB/c mice, 6- to 8-weeks-old. Mice were kept in individually ventilated cages and all experiments were conducted under UK Home Office guidelines. Mice were sensitized (day 0) and boosted (day 14) i.p. with 20 μg OVA (Grade V, Sigma) adsorbed to 9% potassium alum. Mice were either challenged on day 28 and 30 with 50 μg OVA or PBS by the intratracheal route or were challenged with 1% OVA or PBS by aerosol for 30 min on day 28 to day 30. […] Necropsies were performed 24 hr after the final airway challenge. Protein from dissected lung was homogenized (TissueLyser, QIAGEN) in lysis buffer containing protease cocktail inhibitor (Sigma). Samples were incubated for 20 min on ice, prior to centrifugation 10,000 × g to removed cell debris. Protein amounts were quantified with Coomassie (Bradford) Reagent. […]

[4] = tested on: ventilatory function (penH); assay: Ventilatory function (penH) after methacholine, whole-body plethysmography; type: in vivo, BALB/c mice
Procedure: All experiments used female BALB/c mice, 6- to 8-weeks-old. Mice were kept in individually ventilated cages and all experiments were conducted under UK Home Office guidelines. Mice were sensitized (day 0) and boosted (day 14) i.p. with 20 μg OVA (Grade V, Sigma) adsorbed to 9% potassium alum. Mice were either challenged on day 28 and 30 with 50 μg OVA or PBS by the intratracheal route or were challenged with 1% OVA or PBS by aerosol for 30 min on day 28 to day 30. […] Necropsies were performed 24 hr after the final airway challenge. […] Briefly, conscious mice were placed in individual chambers for a 10 min acclimatization period. Spontaneous breathing patterns in mice relate to changes in chamber air pressure, which are measured by a transducer attached to the chamber wall. Differences in the rates of pressure change during peak inspiration and peak expiration and the timing of expiration are used to calculate penH according to the following equation; penH = ((expiratory time/relaxation time) – 1) × (peak expiratory flow (mL/s)/peak inspiratory flow (ml/s)). PenH measurements are not used as a quantitative measurement that relates to airway size and rather reflect changes to ventilation following bronchoconstriction. Baseline measurements of penH were made following an aerosol of PBS. […]

[5] = tested on: lung tissue gene expression; assay: Lung mRNA expression by quantitative RT-PCR, OVA model; type: in vivo, BALB/c mice
Procedure: All experiments used female BALB/c mice, 6- to 8-weeks-old. Mice were kept in individually ventilated cages and all experiments were conducted under UK Home Office guidelines. Mice were sensitized (day 0) and boosted (day 14) i.p. with 20 μg OVA (Grade V, Sigma) adsorbed to 9% potassium alum. Mice were either challenged on day 28 and 30 with 50 μg OVA or PBS by the intratracheal route or were challenged with 1% OVA or PBS by aerosol for 30 min on day 28 to day 30. […] Necropsies were performed 24 hr after the final airway challenge. One part of the left lobe of the lung, removed following BALF, was stored in RNAlater (Ambion) at 4°C for up to 4 weeks. Lung samples were homogenized in RLT lysis buffer using TissueLyser (QIAGEN) and total RNA extracted using RNeasy mini spin columns (QIAGEN). RNA (1 μg) was used for synthesis of cDNA using Moloney murine leukemia virus reverse transcriptase. Relative quantification of genes was carried out by RT-PCR using the Roche Lightcycler, as previously described ([Nair et al., 2005]). PCR amplication was analyzed using 2nd derivative Maximum alogarithm (LightCycler 480 SW 1.5, Roche) and the expression of the gene of interest was normalized to the housekeeping gene, GAPDH. Primer sequences used were as follows: GAPDH-For [NT], Rev [NT]1-For [NT], Rev [NT] Collagen I-For [NT], Rev [NT]-1α-For [NT], Rev […]-12-For [NT], Rev [NT]; and TIMP-1-For [NT], Rev [NT]

[6] = tested on: OVA-specific tLN cell cultures; assay: Cytokine and chemokine secretion from draining tLN cell cultures (Luminex); type: in vivo, BALB/c mice
Procedure: All experiments used female BALB/c mice, 6- to 8-weeks-old. Mice were kept in individually ventilated cages and all experiments were conducted under UK Home Office guidelines. Mice were sensitized (day 0) and boosted (day 14) i.p. with 20 μg OVA (Grade V, Sigma) adsorbed to 9% potassium alum. Mice were either challenged on day 28 and 30 with 50 μg OVA or PBS by the intratracheal route or were challenged with 1% OVA or PBS by aerosol for 30 min on day 28 to day 30. […] Necropsies were performed 24 hr after the final airway challenge.
The draining thoracic lymph nodes (tLN) were dissected and single-cell suspensions made before being plated out at 1 × 10^6 cells/mL in 96-well plates (RPMI 1640 supplemented with L-glutamine, penicillin streptomycin, and FCS). Cells were stimulated with 500 μg/mL OVA and incubated for 72 hr at 37°C, 5% CO2. MIP-1α levels were measured in cell-free supernatants using a Luminex kit (Invitrogen) and samples were read with a Luminex 100 multiplex bead array system.

[7] = 1 and 5 mg/kg i.p., allergic animals

Sequence of human chitotriosidase (hCHIT1) (Q13231 22-466): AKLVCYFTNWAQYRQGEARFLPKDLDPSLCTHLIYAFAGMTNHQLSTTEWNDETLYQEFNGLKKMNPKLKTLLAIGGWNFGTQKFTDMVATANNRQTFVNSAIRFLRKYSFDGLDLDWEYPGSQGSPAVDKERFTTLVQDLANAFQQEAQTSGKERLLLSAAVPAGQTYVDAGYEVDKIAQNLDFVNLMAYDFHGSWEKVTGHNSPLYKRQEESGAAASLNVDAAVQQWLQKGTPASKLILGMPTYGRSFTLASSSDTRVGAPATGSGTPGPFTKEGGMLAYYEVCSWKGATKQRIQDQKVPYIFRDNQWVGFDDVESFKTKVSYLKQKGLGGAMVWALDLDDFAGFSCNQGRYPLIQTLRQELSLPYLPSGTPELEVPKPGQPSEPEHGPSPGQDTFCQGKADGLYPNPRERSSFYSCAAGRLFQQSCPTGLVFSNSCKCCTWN
T1 sequence (Q91XA9 22-473): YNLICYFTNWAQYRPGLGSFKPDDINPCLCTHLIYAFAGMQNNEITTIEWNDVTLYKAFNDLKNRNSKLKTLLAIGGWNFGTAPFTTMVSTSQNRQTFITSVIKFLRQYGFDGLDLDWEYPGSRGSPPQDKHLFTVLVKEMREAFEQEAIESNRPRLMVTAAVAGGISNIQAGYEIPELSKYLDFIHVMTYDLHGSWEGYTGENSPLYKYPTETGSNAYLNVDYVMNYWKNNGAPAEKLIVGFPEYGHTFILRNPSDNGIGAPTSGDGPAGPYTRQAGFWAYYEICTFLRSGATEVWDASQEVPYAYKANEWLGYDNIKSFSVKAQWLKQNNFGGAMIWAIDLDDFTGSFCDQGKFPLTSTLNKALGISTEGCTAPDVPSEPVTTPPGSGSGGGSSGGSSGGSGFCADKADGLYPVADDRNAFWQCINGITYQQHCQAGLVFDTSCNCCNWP

Q: Which results are given for `Cn1cnc2c1c(=O)n(CCCn1c(=O)c3[nH]cnc3n(C)c1=O)c(=O)n2C` [bisdionin F]?
A: IC50 ([1]; listed as Bisdionin F): 17.1 ± 1 µM; IC50 [1]: 17 µM; IC50 [2]: 2.21 µM and 2.2 µM; chitinase activity in the lungs ([3]; 5 mg/kg i.p., control PBS and OVA-challenged mice, about 24 hr after last challenge): significantly reduced; lowest dose at which any chitinase inhibition was observed ([3]; i.p., allergic mice): 1 mg/kg; penH in PBS-challenged animals ([4]; 5 mg/kg, data not shown): no effect; penH in allergic mice ([4]; 1 and 5 mg/kg i.p., highest concentration of methacholine): significantly reduced; MIP-1α mRNA expression in lung ([5]; 5 mg/kg i.p., OVA-challenged animals): enhanced; MMP-12 mRNA expression in lung [5, 7]: significantly increased; TIMP-1 mRNA expression in lung [5, 7]: downregulated; Ym1 mRNA expression in lung [5, 7]: significantly increased; procollagen I mRNA expression in lung [5, 7]: significantly increased; enhancement of the ratio of MMP:TIMP expression ([5]; MMP-12:TIMP-1 mRNA, allergic animals): 2.5 fold; MIP-1α secretion from tLN cell cultures ([6]; 5 mg/kg i.p., OVA-challenged animals, 72 hr culture): enhanced; IL-17 secretion in tLN cultures ([6]; allergic mice, data not shown): not significantly altered; KC secretion in tLN cultures ([6]; allergic mice, data not shown): not significantly altered
